In ChEMBL document CHEMBL3832761, “MMV Pathogen Box Bioactivity Data” (2017):
≈ marks a conversion by molar mass, not a printed value.

Assays:
Assay type in all cases: functional
[1] = test system: Mycobacterium tuberculosis; experiment: AntiMycobacterium tuberculosis activity Non-Replicating form: Average MIC90 (uM)
[2] = test system: Mycobacterium tuberculosis; experiment: AntiMycobacterium tuberculosis activity 1-week GAST/Fe MIC (uM); settings: 168 h
[3] = test system: Mycobacterium tuberculosis; experiment: AntiMycobacterium tuberculosis activity 2-week GAST/Fe MIC (uM); settings: 336 h
[4] = test system: Mycobacterium tuberculosis; experiment: AntiMycobacterium tuberculosis activity 1-week 7H9/ADC/Tw MIC (uM); settings: 168 h
[5] = test system: Mycobacterium tuberculosis; experiment: AntiMycobacterium tuberculosis activity 2-week 7H9/ADC/Tw MIC (uM); settings: 336 h
[6] = test system: Mycobacterium tuberculosis; experiment: AntiMycobacterium tuberculosis activity 2-week Alamar Blue 7H9/ADC/Tw MIC (uM); settings: 336 h
[7] = test system: Mycobacterium tuberculosis; experiment: AntiMycobacterium tuberculosis activity 1-week 7H9/glucose/BSA/Tx MIC (uM); settings: 168 h
[8] = test system: Mycobacterium tuberculosis; experiment: AntiMycobacterium tuberculosis activity 2-week 7H9/glucose/BSA/Tx MIC (uM); settings: 336 h
[9] = test system: Mycobacterium tuberculosis; experiment: AntiMycobacterium tuberculosis activity 1-week 7H9/DPPC/cholesterol/BSA/Tx MIC (uM); settings: 168 h
[10] = test system: Mycobacterium tuberculosis; experiment: AntiMycobacterium tuberculosis activity 2-week 7H9/DPPC/cholesterol/BSA/Tx MIC (uM); settings: 336 h
[11] = test system: Mycobacterium tuberculosis; experiment: AntiMycobacterium tuberculosis activity 1-week 7H9/cholesterol/BSA/Tx MIC (uM); settings: 168 h
[12] = test system: Mycobacterium tuberculosis; experiment: AntiMycobacterium tuberculosis activity 2-week Alamar Blue 7H9/cholesterol/BSA/Tx MIC (uM); settings: 336 h
[13] = test system: Mycobacterium tuberculosis; experiment: (§1) AntiMycobacterium tuberculosis activity day 10 in 7H9/2.5mM butyrate/pH6/0.1mM nitrite MIC90 (uM); settings: 240 h
[14] = test system: Mycobacterium tuberculosis; experiment: AntiMycobacterium tuberculosis activity day 21 in 7H9/2.5mM butyrate/pH6/0.1mM nitrite MIC90 (uM); settings: 504 h
[15] = test system: Mycobacterium tuberculosis; experiment: as §1; settings: 240 h; remark: listed apart in the source
[16] = test system: Mycobacterium tuberculosis; experiment: AntiMycobacterium tuberculosis activity day 21 MIC99 in 7H9/2.5mM butyrate/pH6/0.1mM nitrite MIC99 (uM); settings: 504 h
[17] = test system: Mycobacterium tuberculosis; experiment: AntiMycobacterium tuberculosis activity Replicating form: Average MIC90 (uM)
[18] = test system: HepG2; experiment: HepG2 CC50 (uM) Cytotoxicity; settings: Homo sapiens

SMILES	MIC90 [1]	MIC [2]	MIC [3]	MIC [4]	MIC [5]	MIC [6]	MIC [7]	MIC [8]	MIC [9]	MIC [10]	MIC [11]	MIC [12]	MIC90 [13]	MIC90 [14]	MIC90 [15]	MIC [16]	MIC90 [17]	CC50 [18]
O=C(Nc1nc(-c2ccccn2)cs1)c1cncn1-c1ccccc1	32.5 µM (≈ 11.3 µg/mL)	1.56 µM (≈ 0.542 µg/mL)	3.13 µM (≈ 1.09 µg/mL)	19 µM (≈ 6.6 µg/mL)	25 µM (≈ 8.69 µg/mL)	19 µM (≈ 6.6 µg/mL)	19 µM (≈ 6.6 µg/mL)	25 µM (≈ 8.69 µg/mL)	9.4 µM (≈ 3.27 µg/mL)	25 µM (≈ 8.69 µg/mL)	9.4 µM (≈ 3.27 µg/mL)	12.5 µM (≈ 4.34 µg/mL)	6.25 µM (≈ 2.17 µg/mL)	12.5 µM (≈ 4.34 µg/mL)	> 50 µM	> 50 µM	82.7 µM (≈ 28.7 µg/mL)	3.8 µM
Cc1nn(Cc2ccccc2)c(Cl)c1C(=O)NC1CCCCCC1	5.96 µM (≈ 2.06 µg/mL)	0.39 µM (≈ 0.135 µg/mL)	0.39 µM (≈ 0.135 µg/mL)	19 µM (≈ 6.57 µg/mL)	50 µM (≈ 17.3 µg/mL)	6.25 µM (≈ 2.16 µg/mL)	37 µM (≈ 12.8 µg/mL)	> 50 µM	4.7 µM (≈ 1.63 µg/mL)	6.25 µM (≈ 2.16 µg/mL)	1.56 µM (≈ 0.54 µg/mL)	2.3 µM (≈ 0.796 µg/mL)	3.12 µM (≈ 1.08 µg/mL)	25 µM (≈ 8.65 µg/mL)	3.12 µM (≈ 1.08 µg/mL)	25 µM (≈ 8.65 µg/mL)	> 100 µM	> 100 µM
Cc1cccc(Cn2ccc(NC(=O)c3ccc4c(c3)OCO4)n2)c1	10.4 µM (≈ 3.48 µg/mL)	0.2 µM (≈ 0.0671 µg/mL)	0.3 µM (≈ 0.101 µg/mL)	9.4 µM (≈ 3.15 µg/mL)	25 µM (≈ 8.38 µg/mL)	12.5 µM (≈ 4.19 µg/mL)	12.5 µM (≈ 4.19 µg/mL)	25 µM (≈ 8.38 µg/mL)	9.4 µM (≈ 3.15 µg/mL)	19 µM (≈ 6.37 µg/mL)	9.4 µM (≈ 3.15 µg/mL)	9.4 µM (≈ 3.15 µg/mL)	25 µM (≈ 8.38 µg/mL)	50 µM (≈ 16.8 µg/mL)	50 µM (≈ 16.8 µg/mL)	50 µM (≈ 16.8 µg/mL)	22.6 µM (≈ 7.58 µg/mL)	> 100 µM
CCOc1ccc(OCC(=O)Nc2cc(C)cc(C)c2)cc1	65 µM (≈ 19.5 µg/mL)	3.13 µM (≈ 0.937 µg/mL)	4.7 µM (≈ 1.41 µg/mL)	≥ 50 µM	> 50 µM	> 50 µM	50 µM (≈ 15 µg/mL)	> 50 µM	50 µM (≈ 15 µg/mL)	> 50 µM	50 µM (≈ 15 µg/mL)	> 50 µM	> 50 µM	> 50 µM	> 50 µM	> 50 µM	82.3 µM (≈ 24.6 µg/mL)	> 100 µM
Cc1cc(C)cc(COc2ccc3c(C)c(CCC(=O)O)c(=O)oc3c2C)c1	> 100 µM	6.25 µM (≈ 2.38 µg/mL)	9.4 µM (≈ 3.58 µg/mL)	> 50 µM	> 50 µM	> 50 µM	> 50 µM	> 50 µM	50 µM (≈ 19 µg/mL)	50 µM (≈ 19 µg/mL)	> 50 µM	> 50 µM	> 50 µM	> 50 µM	> 50 µM	> 50 µM	> 100 µM	> 100 µM
O=C(C1CCN(c2cc(-n3cccc3)ncn2)CC1)N1CCc2ccccc2C1	7.62 µM (≈ 2.95 µg/mL)	0.39 µM (≈ 0.151 µg/mL)	0.6 µM (≈ 0.232 µg/mL)	0.78 µM (≈ 0.302 µg/mL)	1.56 µM (≈ 0.604 µg/mL)	1.56 µM (≈ 0.604 µg/mL)	2.3 µM (≈ 0.891 µg/mL)	2.3 µM (≈ 0.891 µg/mL)	3.13 µM (≈ 1.21 µg/mL)	3.13 µM (≈ 1.21 µg/mL)	3.13 µM (≈ 1.21 µg/mL)	3.13 µM (≈ 1.21 µg/mL)	12.5 µM (≈ 4.84 µg/mL)	50 µM (≈ 19.4 µg/mL)	> 50 µM	> 50 µM	7.41 µM (≈ 2.87 µg/mL)	> 100 µM
NC(=O)c1cc(-c2ccsc2)ccc1OCCOc1ccccc1	3.96 µM (≈ 1.34 µg/mL)	0.39 µM (≈ 0.132 µg/mL)	0.6 µM (≈ 0.204 µg/mL)	> 50 µM	> 50 µM	19 µM (≈ 6.45 µg/mL)	> 50 µM	> 50 µM	12.5 µM (≈ 4.24 µg/mL)	> 50 µM	> 50 µM	6.25 µM (≈ 2.12 µg/mL)	> 50 µM	> 50 µM	> 50 µM	> 50 µM	> 100 µM	> 100 µM
Cc1cc(NCCc2ccccc2)nc(NC(=N)Nc2ccc(Cl)cc2)n1	2.77 µM (≈ 1.06 µg/mL)	0.78 µM (≈ 0.297 µg/mL)	0.78 µM (≈ 0.297 µg/mL)	1.2 µM (≈ 0.457 µg/mL)	1.56 µM (≈ 0.594 µg/mL)	2.3 µM (≈ 0.876 µg/mL)	1.2 µM (≈ 0.457 µg/mL)	1.2 µM (≈ 0.457 µg/mL)	0.6 µM (≈ 0.229 µg/mL)	0.78 µM (≈ 0.297 µg/mL)	0.6 µM (≈ 0.229 µg/mL)	0.78 µM (≈ 0.297 µg/mL)	3.12 µM (≈ 1.19 µg/mL)	3.12 µM (≈ 1.19 µg/mL)	6.25 µM (≈ 2.38 µg/mL)	3.12 µM (≈ 1.19 µg/mL)	1.15 µM (≈ 0.438 µg/mL)	6.5 µM
CCc1nc2ccc(Cl)cn2c1C(=O)NCc1ccc(N2CCC(c3ccc(OC(F)(F)F)cc3)CC2)cc1 [TELACEBEC]	0.01 µM (≈ 0.00557 µg/mL)	< 0.02 µM	< 0.02 µM	> 50 µM	> 50 µM	0.02 µM (≈ 0.0111 µg/mL)	0.1 µM (≈ 0.0557 µg/mL)	> 50 µM	< 0.02 µM	0.02 µM (≈ 0.0111 µg/mL)	< 0.02 µM	0.02 µM (≈ 0.0111 µg/mL)	≤ 0.04 µM	≤ 0.04 µM	≤ 0.04 µM	≤ 0.04 µM	0.01 µM (≈ 0.00557 µg/mL)	> 100 µM
